# Source: US5723461A, “Quinoxalines, a process for their preparation and their use” (Hoechst Aktiengesellschaft, priority 1994, dated 1998)
# Legend:
# HIV = assay: Testing of preparations against HIV in cell culture (T-cell culture assay); type: cell-based; details: Human immunodeficiency virus 1, 72 h, HIV-infected lymphocytes, 3 days at 37° C., lowest concentration at which no giant cells occurred, read-out: MIC EC50
# Description: Testing of preparations against HIV in cell culture
# Description of the method:
# Complete medium additionally contains 20% fetal calf serum and 40 IU/ml recombinant interleukin 2.
# Lymphocytes, which have been isolated from fresh donor blood by means of Ficoll® gradient centrifugation, are cultured, for 36 hours at 37° C. and under 5% CO2, in complete medium which additionally contains […] phytohemagglutinin (Wellcome). After 10% DMSO has been added, the cells are frozen at a cell density of 5×10^6 and stored in liquid nitrogen. For the experiment, the cells are thawed, washed in the RPMI medium and cultured for 3 to 4 days in the complete medium.
# The test preparations were dissolved in DMSO at a concentration of 16.7 mg/ml, and these solutions were diluted with complete medium to a concentration of 1 mg/ml. 0.4 ml of medium was initially introduced into 24-well multiwell plates. After 0.1 ml of the dissolved preparation had been added to the upper row of the plate, a geometric dilution series was produced by transferring 0.1 ml on each occasion. Preparation-free controls contained 0.4 ml of complete medium containing 0.5% DMSO.
# Lymphocyte cultures having a cell count of 5×10^5 cells/ml were infected by adding a 1/50 volume of the supernatant from HIV-infected lymphocyte cultures. The titer of these culture supernatants was determined by end-point dilution to be 1-5×10^6 infectious units/ml. After having been incubated at 37° C. for 30 min, the infected lymphocytes were centrifuged off and taken up once again in the same volume of medium. 0.6 ml of this cell suspension was added to each of the wells in the test plate. The assay mixtures were incubated at 37° C. for 3 days.
# The infected cell cultures were examined under the microscope for the presence of giant cells, which are indicative of active viral replication in the culture. The lowest preparation concentration at which no giant cells occurred was determined and taken to be the inhibitory concentration against HIV. As a control, the supernatants from the culture plates were assayed for the presence of HIV antigen using an HIV antigen test in accordance with the manufacturer's (Organon) instructions.
# [1] = molecular target: T1, HIV reverse transcriptase (Human immunodeficiency virus type 1 group M subtype B, UniProt P04585); assay: Inhibition of HIV reverse transcriptase (scintillation proximity assay); type: biochemical; details: Reverse transcriptase assay (SPA), 60 min, 37° C.
# T1 construct: purchased HT Biotechnology Ltd., Cambridge, UK; host or cells: E. coli
# Description: Examination of the substances for their ability to inhibit HIV reverse transcriptase
# The activity of the reverse transcriptase (RT) was determined using a scintillation proximity assay (SPA).
# The reagent kit for the RT SPA was obtained from Amersham/Buchler (Braunschweig). The RT enzyme (derived from HIV and cloned in E. coli) was obtained from HT Biotechnology Ltd., Cambridge, UK.
# The test was carried out in accordance with the manufacturer's (Amersham) methods manual, with the following modifications:
# Bovine serum albumin was added to the assay buffer to a final concentration of 0.5 mg/ml.
# The test was carried out in Eppendorf tubes using an assay mixture volume of 100 μl.
# The manufacturer's RT concentrate (5000 U/ml) was diluted to an activity of 15 U per ml using 20 mM tris-HCl buffer, pH 7.2, 30% glycerol.
# The assay mixtures were incubated for 60 min (37° C.).
# After the reaction had been stopped and "developed" with the bead suspension, 130 μl of assay mixture were transferred into 4.5 ml of 10 mM tris-HCl buffer, pH 7.4, 0.15M NaCl and the tritium activity was measured in a β-counter.
# In order to carry out a preliminary test of their inhibitory activity, the substances were dissolved in DMSO (stock solution, c=1 mg/ml) and tested when diluted 10^-1, 10^-2, 10^-3 etc. in DMSO.
# In order to determine IC50 values, the stock solutions of inhibitor were further diluted in 50 mM tris-HCl buffer, pH 8, and tested at suitable concentrations.
# The concentration associated with 50% inhibition of the enzyme was ascertained from the plot of RT activity against log Cinh.
Compound,EC50 (HIV),IC50 [1]
"COc1ccc2c(c1)N(C(=O)OC(C)C)[C@@H](CSC)C(=O)N2 [Example 29, S-4-Isopropoxycarbonyl-6-methoxy-3-(methylthiomethyl)-3,4-dihydroquinoxalin-2(1H)-one]",< 8 ng/mL,30.8 to 308 nM
CC[C@H]1C(=O)Nc2ccccc2N1C(=O)OC(C)C [Example 30],< 40 ng/mL,–
CCC[C@H]1C(=O)Nc2ccccc2N1C(=O)OC(C)C [Example 31],50 ng/mL,–
CSC[C@H]1C(=O)Nc2ccccc2N1C(=O)OC(C)C [Example 34],< 1 ng/mL,34 to 340 nM
CC[C@H]1C(=O)Nc2ccc(Cl)cc2N1C(=O)OC(C)C [Example 35],< 80 ng/mL,33.7 nM
CSC[C@H]1C(=O)Nc2ccc(Cl)cc2N1C(=O)OC(C)C [Example 38],< 1 ng/mL,15.2 nM
CC[C@H]1C(=O)Nc2ccc(F)cc2N1C(=O)OC(C)C [Example 39],8 ng/mL,71.4 nM
CCC[C@H]1C(=O)Nc2ccc(F)cc2N1C(=O)OC(C)C [Example 40],80 ng/mL,34 to 340 nM
CSC[C@H]1C(=O)Nc2ccc(F)cc2N1C(=O)OC(C)C [Example 42],< 8 ng/mL,–
CC[C@H]1C(=O)Nc2ccc(OC)cc2N1C(=O)OC(C)C [Example 43],< 1 ng/mL,–
CCC[C@H]1C(=O)Nc2ccc(OC)cc2N1C(=O)OC(C)C [Example 44],< 80 ng/mL,–
CCOc1ccc2c(c1)N(C(=O)OC(C)C)[C@@H](CSC)C(=O)N2 [Example 52],< 8 ng/mL,29.5 to 295 nM
CCCOc1ccc2c(c1)N(C(=O)OC(C)C)[C@@H](CSC)C(=O)N2 [Example 54],40 ng/mL,–
C=C(C)OC(=O)N1c2cc(Cl)ccc2NC(=O)[C@@H]1CC [Example 57],1 ng/mL,33.9 to 339 nM
C=CCOC(=O)N1c2cc(Cl)ccc2NC(=O)[C@@H]1CC [Example 58],10 ng/mL,33.9 to 339 nM
C=C(C)OC(=O)N1c2cc(Cl)ccc2NC(=O)[C@@H]1CSC [Example 59],20 ng/mL,55.1 nM
CCCOC(=O)N1c2cc(Cl)ccc2NC(=O)[C@@H]1CSC [Example 60],40 ng/mL,30.4 nM
CCOC(=O)N1c2cc(Cl)ccc2NC(=O)[C@@H]1CSC [Example 61],2 ng/mL,31.8 to 318 nM
C=C(C)OC(=O)N1c2cc(F)ccc2NC(=O)[C@@H]1CC [Example 62],80 ng/mL,331 nM
C=C(C)OC(=O)N1c2cc(OC)ccc2NC(=O)[C@@H]1CSC [Example 68],8 ng/mL,49.6 nM

Compound,EC50 (HIV),IC50 [1]
CCOC(=O)N1c2cc(F)ccc2NC(=O)[C@@H]1CC [Example 78],< 80 ng/mL,300 nM
CCC(C)OC(=O)N1c2cc(OC)ccc2NC(=O)[C@@H]1CSC (some centres unmarked) [Example 84g],–,349 nM
CC(C)OC(=O)N1c2cc(F)ccc2NC(=O)[C@@H]1C [Example 84i],80 ng/mL,638 nM
CCC(C)OC(=O)N1c2cc(F)ccc2NC(=O)[C@@H]1CC (some centres unmarked) [Example 84j],< 80 ng/mL,296 nM
CCCCOC(=O)N1c2cc(F)ccc2NC(=O)[C@@H]1CC [Example 84l],80 ng/mL,510 nM
COC[C@H]1C(=O)Nc2ccc(F)cc2N1C(=O)OC(C)C [Example 84o],80 ng/mL,–
"COc1ccc2c(c1)N(C(=O)OC(C)C)[C@@H](CSC)C(=S)N2 [Example 85, S-4-Isopropoxycarbonyl-6-methoxy-3-(methylthiomethyl)-3,4-dihydroquinoxalin-2(1H)-thione]",2 ng/mL,23.5 nM
CC[C@H]1C(=S)Nc2ccccc2N1C(=O)OC(C)C [Example 86],1 ng/mL,39.5 nM
CCC[C@H]1C(=S)Nc2ccccc2N1C(=O)OC(C)C [Example 87],4 ng/mL,92.3 nM
CCCC[C@H]1C(=S)Nc2ccccc2N1C(=O)OC(C)C [Example 88],< 40 ng/mL,–
CSC[C@H]1C(=S)Nc2ccccc2N1C(=O)OC(C)C [Example 90],< 8 ng/mL,16.1 nM
CC[C@H]1C(=S)Nc2ccc(Cl)cc2N1C(=O)OC(C)C [Example 91],2 ng/mL,12.8 nM
CSC[C@H]1C(=S)Nc2ccc(Cl)cc2N1C(=O)OC(C)C [Example 94],< 8 ng/mL,43.5 nM
CC[C@H]1C(=S)Nc2ccc(F)cc2N1C(=O)OC(C)C [Example 95],2 ng/mL,–
CCC[C@H]1C(=S)Nc2ccc(F)cc2N1C(=O)OC(C)C [Example 96],80 ng/mL,51.5 nM
CSC[C@H]1C(=S)Nc2ccc(F)cc2N1C(=O)OC(C)C [Example 98],3 ng/mL,36.5 nM
CC[C@H]1C(=S)Nc2ccc(OC)cc2N1C(=O)OC(C)C [Example 99],< 1 ng/mL,35.7 nM
CCC[C@H]1C(=S)Nc2ccc(OC)cc2N1C(=O)OC(C)C [Example 100],4 ng/mL,49.6 nM
COC[C@H]1C(=S)Nc2ccc(OC)cc2N1C(=O)OC(C)C [Example 104],8 ng/mL,108 nM
CCOc1ccc2c(c1)N(C(=O)OC(C)C)[C@@H](CSC)C(=S)N2 [Example 108],< 5 ng/mL,22.6 nM

Compound,EC50 (HIV),IC50 [1]
CCCOc1ccc2c(c1)N(C(=O)OC(C)C)[C@@H](CSC)C(=S)N2 [Example 110],4 ng/mL,27.1 to 271 nM
C=C(C)OC(=O)N1c2cc(Cl)ccc2NC(=S)[C@@H]1CC [Example 113],0.8 ng/mL,19.3 nM
C=CCOC(=O)N1c2cc(Cl)ccc2NC(=S)[C@@H]1CC [Example 114],1.6 ng/mL,22.5 nM
C=C(C)OC(=O)N1c2cc(Cl)ccc2NC(=S)[C@@H]1CSC [Example 115],1.6 ng/mL,29.2 nM
C=C(C)OC(=O)N1c2cc(OC)ccc2NC(=S)[C@@H]1CSC [Example 124],< 8 ng/mL,–
CCC(C)COC(=O)N1c2cc(OC)ccc2NC(=S)[C@@H]1CSC (some centres unmarked) [Example 125],–,40.7 nM
CCOC(=O)N1c2cc(F)ccc2NC(=S)[C@@H]1CC [Example 134],8 ng/mL,10.6 nM
CSC[C@H]1C(=S)Nc2ccc(O)cc2N1C(=O)OC(C)C [Example 140a],40 ng/mL,285 nM
CC[C@H]1C(=S)Nc2ccc(O)cc2N1C(=O)OC(C)C [Example 140b],< 80 ng/mL,238 nM
C=CCOC(=O)N1c2cc(Cl)ccc2NC(=S)[C@@H]1C [Example 140c],40 ng/mL,371 nM
C=C(C)OC(=O)N1c2cc(Cl)ccc2NC(=S)[C@@H]1C [Example 140d],10 ng/mL,91 nM
CCC(C)OC(=O)N1c2cc(OC)ccc2NC(=S)[C@@H]1CSC (some centres unmarked) [Example 140f],8 ng/mL,53.6 nM
COc1ccc2c(c1)N(C(=O)OCC(C)C)[C@@H](CSC)C(=S)N2 [Example 140g],40 ng/mL,48 nM
CC[C@H]1C(=S)Nc2ccc(F)cc2N1C(=O)OC [Example 140h],10 ng/mL,29.8 nM
CCCCOC(=O)N1c2cc(F)ccc2NC(=S)[C@@H]1CC [Example 140i],10 ng/mL,70.9 nM
CC[C@H]1C(=S)Nc2ccc(F)cc2N1C(=O)OCC(C)C [Example 140j],10 ng/mL,48.3 nM
CCC(C)OC(=O)N1c2cc(F)ccc2NC(=S)[C@@H]1CC (some centres unmarked) [Example 140k],8 ng/mL,51.5 nM
COC[C@H]1C(=S)Nc2ccc(F)cc2N1C(=O)OC(C)C [Example 140l],8 ng/mL,70.4 nM
